Reference: ChEMBL document CHEMBL3822408, “Synthesis and antimicrobial evaluation of novel ethyl 2-(2-(4-substituted)acetamido)-4-subtituted-thiazole-5-carboxylate derivatives” (2016)
Values after ≈ are worked out from the molar mass of the structure shown.

Legend:
Type in all cases: functional
Candida albicans = experiment: Antifungal activity against Candida albicans by broth dilution method
Escherichia coli = experiment: Antibacterial activity against Escherichia coli NCIM 2256 by broth dilution method
Bacillus subtilis = experiment: Antibacterial activity against Bacillus subtilis NCIM 2063 by broth dilution method
Aspergillus flavus = experiment: Antifungal activity against Aspergillus flavus by broth dilution method
Aspergillus niger = experiment: Antifungal activity against Aspergillus niger by broth dilution method
Staphylococcus aureus = experiment: Antibacterial activity against Staphylococcus aureus NCIM 2901 by broth dilution method

Row | SMILES | MIC (Candida albicans) | MIC (Escherichia coli) | MIC (Bacillus subtilis) | MIC (Aspergillus flavus) | MIC (Aspergillus niger) | MIC (Staphylococcus aureus)
1 | CCOC(=O)c1sc(NC(=O)CN2CCCCC2)nc1C | 75 µg/mL (≈ 241 µM) | 60 µg/mL (≈ 193 µM) | 45 µg/mL (≈ 145 µM) | 100 µg/mL (≈ 321 µM) | 100 µg/mL (≈ 321 µM) | 100 µg/mL (≈ 321 µM)
2 | Cc1nc(NC(=O)CN2CCC(Cc3ccccc3)CC2)sc1C | 25 µg/mL (≈ 72.8 µM) | 29 µg/mL (≈ 84.4 µM) | 28 µg/mL (≈ 81.5 µM) | 12.5 µg/mL (≈ 36.4 µM) | 12.5 µg/mL (≈ 36.4 µM) | 30 µg/mL (≈ 87.3 µM)
3 | CCOC(=O)c1sc(NC(=O)CN2CCC(c3ccccc3)CC2)nc1C | 25 µg/mL (≈ 64.5 µM) | 29 µg/mL (≈ 74.8 µM) | 28 µg/mL (≈ 72.3 µM) | 12.5 µg/mL (≈ 32.3 µM) | 25 µg/mL (≈ 64.5 µM) | 30 µg/mL (≈ 77.4 µM)
4 | CCOC(=O)c1sc(NC(=O)CN2CCC(Cc3ccccc3)CC2)nc1C | 75 µg/mL (≈ 187 µM) | 50 µg/mL (≈ 125 µM) | 35 µg/mL (≈ 87.2 µM) | 50 µg/mL (≈ 125 µM) | 50 µg/mL (≈ 125 µM) | 70 µg/mL (≈ 174 µM)
5 | CCOC(=O)c1sc(NC(=O)CN2CCC(Cc3ccccc3)CC2)nc1-c1ccccc1 | 50 µg/mL (≈ 108 µM) | 29 µg/mL (≈ 62.6 µM) | 25 µg/mL (≈ 53.9 µM) | 25 µg/mL (≈ 53.9 µM) | 25 µg/mL (≈ 53.9 µM) | 28 µg/mL (≈ 60.4 µM)
6 | COC(=O)c1sc(NC(=O)CN2CCC(Cc3ccccc3)CC2)nc1C1CC1 | 25 µg/mL (≈ 60.5 µM) | 29 µg/mL (≈ 70.1 µM) | 29 µg/mL (≈ 70.1 µM) | 12.5 µg/mL (≈ 30.2 µM) | 12.5 µg/mL (≈ 30.2 µM) | 28 µg/mL (≈ 67.7 µM)
7 | CCOC(=O)c1sc(NC(=O)CN2CCC(C)CC2)nc1C | 75 µg/mL (≈ 230 µM) | 50 µg/mL (≈ 154 µM) | 35 µg/mL (≈ 108 µM) | 50 µg/mL (≈ 154 µM) | 50 µg/mL (≈ 154 µM) | 70 µg/mL (≈ 215 µM)
8 | COC(=O)c1cnc(NC(=O)CN2CCC(Cc3ccccc3)CC2)s1 | 100 µg/mL (≈ 268 µM) | 60 µg/mL (≈ 161 µM) | 35 µg/mL (≈ 93.7 µM) | 50 µg/mL (≈ 134 µM) | 50 µg/mL (≈ 134 µM) | 50 µg/mL (≈ 134 µM)
9 | CCOC(=O)c1cnc(NC(=O)CN2CCC(Cc3ccccc3)CC2)s1 | 25 µg/mL (≈ 64.5 µM) | 29 µg/mL (≈ 74.8 µM) | 29 µg/mL (≈ 74.8 µM) | 12.5 µg/mL (≈ 32.3 µM) | 12.5 µg/mL (≈ 32.3 µM) | 28 µg/mL (≈ 72.3 µM)
10 | OC(Cn1cncn1)(Cn1cncn1)c1ccc(F)cc1F [FLUCONAZOLE] | 40 µg/mL (≈ 131 µM) |  |  | 25 µg/mL (≈ 81.6 µM) | 25 µg/mL (≈ 81.6 µM) | 
11 | Cc1csc(NC(=O)CN2CCC(Cc3ccccc3)CC2)n1 | 75 µg/mL (≈ 228 µM) | 50 µg/mL (≈ 152 µM) | 35 µg/mL (≈ 106 µM) | 50 µg/mL (≈ 152 µM) | 50 µg/mL (≈ 152 µM) | 70 µg/mL (≈ 212 µM)
12 | Clc1ccc(COC(Cn2ccnc2)c2ccc(Cl)cc2Cl)c(Cl)c1 (stereo unspecified) [MICONAZOLE] | 12.5 µg/mL (≈ 30 µM) |  |  | 12.5 µg/mL (≈ 30 µM) | 12.5 µg/mL (≈ 30 µM) | 
13 | CCOC(=O)c1sc(NC(=O)CN2CCC(Cc3ccccc3)CC2)nc1CC | 75 µg/mL (≈ 180 µM) | 100 µg/mL (≈ 241 µM) | 40 µg/mL (≈ 96.3 µM) | 100 µg/mL (≈ 241 µM) | 100 µg/mL (≈ 241 µM) | 100 µg/mL (≈ 241 µM)
14 | CC(=O)c1sc(NC(=O)CN2CCC(Cc3ccccc3)CC2)nc1C | 100 µg/mL (≈ 269 µM) | 60 µg/mL (≈ 162 µM) | 35 µg/mL (≈ 94.2 µM) | 50 µg/mL (≈ 135 µM) | 50 µg/mL (≈ 135 µM) | 50 µg/mL (≈ 135 µM)
15 | C[C@H]1COc2c(N3CCN(C)CC3)c(F)cc3c(=O)c(C(=O)O)cn1c23.C[C@H]1COc2c(N3CCN(C)CC3)c(F)cc3c(=O)c(C(=O)O)cn1c23.O [LEVOFLOXACIN] |  | 29 µg/mL | 29 µg/mL |  |  | 28 µg/mL
